Experimental data as given in article PMC12638379, “An innovative approach to development of new pyrazolylquinolin-2-one hybrids as dual EGFR and BRAF^V600E inhibitors” (Molecular Diversity, 2025).
Where “and” joins values, the source holds several entries; their conditions need not be identical. Equal values may be shown once. Read-outs that look alike come from different tables or passages of the source.

Tests used:
[1] = tested on: lung cancer (HOP-92) cell line; assay: MTT antiproliferative assay, HOP-92; type: cell-based, human
Procedure: […]. […] See Appendix B.
(§1) After 24 h of culture incubation and supernatants discarded.

[2] = tested on: breast cancer (T47D) cell line; assay: MTT antiproliferative assay, T-47D
Procedure: The median inhibitory concentration (IC50) and GI50 (average IC50) against the three cancer cell lines were calculated. See Appendix B.
Cells were cultured using DMEM (Invitrogen/Life Technologies) supplemented with 10% FBS (Hyclone,), 10 ug/ml of insulin (Sigma), and 1% penicillin-streptomycin. Plate cells (cells density 1.2 – 1.8 × 10,000 cells/well) in a volume of 100µl complete growth medium + 100 ul of the tested compound per well in a 96-well plate for 24 hours before the MTT assay. In atypical experiment, one hundred micro liters of serial 10-fold diluted sterile tested compounds were added to final concentrations of […] using culture media as negative control. After 24 h of culture incubation and supernatants discarded. HOP-92 lung, MOLT-4 leukemia, and T-47D breast cell lines were trypsinized and washed with Ca2/Mg2 free PBS (pH 7.2). we removed cultures from incubator into laminar flow hood or other sterile work area. […] Each test should include a blank containing complete medium without cells. […] Add reconstituted MTT in an amount equal to 10% of the culture medium volume. Return cultures to incubator for 2-4 hours depending on cell type and maximum cell density. […] Spectrophotometrically absorbance was measured at a wavelength of 570 nm. Measure the background absorbance of multiwell plates at 690 nm and subtract from the […] measurement. Results from all experiments were recorded and the percentage of viable cells was calculated.

[3] = tested on: leukemia (MOLT-4) cell line; assay: MTT antiproliferative assay, MOLT-4; type: cell-based, human; conditions: for IC50: read-out: Antiproliferative activity IC50 ± SEM, MOLT-4
Procedure: as §1

[4] = MTT cytotoxicity on normal cell line WI-38; conditions: human, WI-38 normal cells, % viability
[5] = tested on: normal cell line WI-38; assay: MTT cytotoxicity on normal cell line WI-38
[6] = molecular target: BRAF^V600E (Homo sapiens, UniProt P15056, V600E); assay: BRAF^V600E inhibitory assay (B-Raf (V600E) Kinase Assay); type: biochemical; conditions: read-out: BRAF^V600E inhibition IC50 ± SEM
Sequence of BRAF^V600E (P15056 whole entry V600E): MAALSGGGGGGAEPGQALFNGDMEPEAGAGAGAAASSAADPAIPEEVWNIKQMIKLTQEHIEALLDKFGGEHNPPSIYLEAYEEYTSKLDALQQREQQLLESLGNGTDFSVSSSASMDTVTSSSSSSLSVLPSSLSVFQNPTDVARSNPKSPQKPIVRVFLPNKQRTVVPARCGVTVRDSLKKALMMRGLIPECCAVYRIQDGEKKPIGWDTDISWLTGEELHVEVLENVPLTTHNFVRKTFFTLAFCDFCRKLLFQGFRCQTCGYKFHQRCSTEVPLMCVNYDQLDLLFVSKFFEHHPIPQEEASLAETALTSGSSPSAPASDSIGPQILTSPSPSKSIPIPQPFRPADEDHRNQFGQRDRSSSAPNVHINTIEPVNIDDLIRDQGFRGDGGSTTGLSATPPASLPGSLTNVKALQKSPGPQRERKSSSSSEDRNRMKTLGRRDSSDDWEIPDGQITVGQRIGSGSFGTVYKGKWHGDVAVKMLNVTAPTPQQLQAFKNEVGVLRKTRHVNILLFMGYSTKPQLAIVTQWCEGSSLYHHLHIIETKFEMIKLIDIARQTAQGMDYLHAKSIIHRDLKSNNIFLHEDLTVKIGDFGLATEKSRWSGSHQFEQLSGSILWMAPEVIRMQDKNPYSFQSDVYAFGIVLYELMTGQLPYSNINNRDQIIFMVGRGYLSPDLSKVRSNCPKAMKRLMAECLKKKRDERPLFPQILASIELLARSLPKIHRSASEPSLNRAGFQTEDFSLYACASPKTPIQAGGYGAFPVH

[7] = tested on: NCI 60 cancer cell lines; assay: NCI anticancer screening over a panel of 60 cancer cells, single concentration 10 µM; type: cell-based, human; conditions: for inhibition at 10 µM: Homo sapiens, read-out: % Growth Inhibition (GI %)
Procedure, shortened: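 Run under the NCI Compound Evaluation Branch protocol, each compound was tested once at 10 µM. The panel comprised 60 cancer cell lines of diverse tissue origin, including leukemia, lung, colon, CNS, renal, ovarian, breast and prostate.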

C/C(=N\Nc1ccc(S(N)(=O)=O)cc1)c1cnn(-c2cc(=O)[nH]c3ccc(Br)cc23)c1C [Compound 4e, (E)-4-(2-(1-(1-(6-bromo-2-oxo-1,2-dihydroquinolin-4-yl)-5-methyl-1H-pyrazol-4-yl)ethylidene)hydrazineyl)benzenesulfonamide]
% viability ([1]; HOP-92, MTT, 0.4uM, listed as Ws5, 0.4 µM): 71.413%
% viability ([1]; HOP-92, MTT, 1.6uM, listed as Ws5, 1.6 µM): 60.375%
% viability ([1]; HOP-92, MTT, 6.3uM, listed as Ws5, 6.3 µM): 47.848%
% viability ([1]; HOP-92, MTT, 25uM, listed as Ws5, 25 µM): 34.437%
viability at 0.4 µM ([1]; Homo sapiens, HOP-92, HOP-92, MTT, 0.4uM, read-out: % viability): 71.4%
viability at 1.6 µM ([1]; Homo sapiens, HOP-92, HOP-92, MTT, 1.6uM, read-out: % viability): 60.4%
viability at 6.3 µM ([1]; Homo sapiens, HOP-92, HOP-92, MTT, 6.3uM, read-out: % viability): 47.9%
viability at 25 µM ([1]; Homo sapiens, HOP-92, HOP-92, MTT, 25uM, read-out: % viability): 34.4%
viability at 100 µM ([1]; Homo sapiens, HOP-92, HOP-92, MTT, 100uM, read-out: % viability): 26.5%
IC50 ([1]; Homo sapiens, HOP-92, HOP-92, concentration used in RT-PCR, read-out: IC50): 4.98 µM
IC50 ([1]; Homo sapiens, HOP-92, HOP-92, concentration used in apoptosis assay, read-out: Conc IC50): 4.98 µM
IC50 ([1]; Homo sapiens, HOP-92, HOP-92, concentration used in cell cycle analysis, read-out: IC50): 4.98 µM
IC50 ([1]; Homo sapiens, HOP-92, MTT, read-out: Antiproliferative activity IC50 ± SEM, HOP-92): 4.98 ± 0.2 µM
viability at 0.4 µM ([2]; Homo sapiens, T47D, 0.4uM (log -0.41)): 74%
viability at 6.3 µM ([2]; Homo sapiens, T47D, 6.3uM (log 0.796)): 52.1%
viability at 25 µM ([2]; Homo sapiens, T47D, 25uM (log 1.398)): 42.1%
viability at 100 µM ([2]; Homo sapiens, T47D, 100uM (log 2), MTT absorbance 450 nm): 32.1%
IC50 ([2]; Homo sapiens, T47D, read-out: Antiproliferative activity IC50 ± SEM, T-47D, MTT): 8.02 ± 0.31 µM
% viability ([2]; T47D, 1.6ug (log 0.193)): 61.86%
% viability ([2]; T47D, 25uM (log 1.398), listed as Ws5, 25 µM): 42.072%
IC50 ([2]; read-out: Antiproliferative activity IC50 ± SEM, T-47D, MTT): 8.62 ± 0.34 µM
IC50 ([3]; Homo sapiens, MOLT-4, MTT): 8.62 ± 0.34 µM
% viability ([3]; MOLT-4, 0.4ug (log conc. -0.41)): 65.87%
% viability ([3]; MOLT-4, 1.6ug (log conc. 0.193), listed as Ws5): 58.42% and 58.419%
% viability ([3]; MOLT-4, 6.3ug (log conc. 0.796), listed as Ws5): 52.84% and 52.844%
% viability ([3]; MOLT-4, 25ug (log conc. 1.398), listed as Ws5): 44.14% and 44.141%
% viability ([3]; MOLT-4, 100ug (log conc. 2)): 35.495%
IC50 ([3]; MTT): 8.02 ± 0.31 µM
viability at 24 h, 0.4 µM ([4]; WI38, 0.4uM (log conc. -0.41)): 83.2%
viability at 24 h, 1.6 µM ([4]; WI38, 1.6uM (log conc. 0.19)): 70.8%
viability at 24 h, 6.3 µM ([4]; WI38, 6.3uM (log conc. 0.8)): 61%
viability at 24 h, 25 µM ([4]; WI38, 25uM (log conc. 1.4)): 50.4%
viability at 24 h, 100 µM ([4]; WI38, 100uM (log conc. 2)): 42.1%
IC50 ([5]; Homo sapiens, read-out: Antiproliferative activity IC50 ± SEM): 29.6 ± 1.18 µM
% viability ([5]; WI38, 0.4uM (log conc. -0.41), listed as Ws5, 0.4 µM): 83.1677%
% viability ([5]; WI38, 1.6uM (log conc. 0.19), listed as Ws5, 1.6 µM): 70.8075%
% viability ([5]; WI38, 6.3uM (log conc. 0.8), listed as Ws5, 6.3 µM): 60.9938%
% viability ([5]; WI38, 100uM (log conc. 2), listed as Ws5, 100 µM): 42.1118%
IC50 [6]: 0.068 ± 0.003 µM
activity in NCI screening (mean GI%) ([7]; 10 µM, over the NCI cancer cell lines): remarkable activity over the most NCI cancer cell lines
inhibition at 10 µM ([7]; 786-0, Renal cancer 786-0, 10 μM): 14.1%
inhibition at 10 µM ([7]; A498, Renal cancer A498, 10 μM): < 5%
inhibition at 10 µM ([7]; A549, Non-small cell lung cancer A549/ATCC, 10 μM): < 5%
inhibition at 10 µM ([7]; ACHN, Renal cancer ACHN, 10 μM): 19%
inhibition at 10 µM ([7]; BT-549, Breast cancer BT-549, 10 μM): 62.3%
inhibition at 10 µM ([7]; CAKI-1, Renal cancer CAKI-1, 10 μM): 23.3%
inhibition at 10 µM ([7]; CCRF-CEM, Leukemia CCRF-CEM, 10 μM): 91.8%
inhibition at 10 µM ([7]; COLO 205, Colon cancer COLO 205, 10 μM): 14.5%
inhibition at 10 µM ([7]; DU-145, Prostate cancer DU-145, 10 μM): 22.1%
inhibition at 10 µM ([7]; EKVX, Non-small cell lung cancer EKVX, 10 μM): 27.9%
inhibition at 10 µM ([7]; HCC 2998, Colon cancer HCC-2998, 10 μM): 26.6%
inhibition at 10 µM ([7]; HCT-15, Colon cancer HCT-15, 10 μM): 8.8%
inhibition at 10 µM ([7]; HCT-116, Colon cancer HCT-116, 10 μM): 41.5%
inhibition at 10 µM ([7]; HL-60, Leukemia HL-60(TB), 10 μM): 15.2%
inhibition at 10 µM ([7]; HOP-62, Non-small cell lung cancer HOP-62, 10 μM): 36.6%
inhibition at 10 µM ([7]; HOP-92, Non-small cell lung cancer HOP-92, 10 μM): 102%
inhibition at 10 µM ([7]; HT-29, Colon cancer HT29, 10 μM): < 5%
inhibition at 10 µM ([7]; Hs-578T, Breast cancer HS 578T, 10 μM): 71.6%
inhibition at 10 µM ([7]; IGROV-1, Ovarian cancer IGROV1, 10 μM): 43%
inhibition at 10 µM ([7]; K562, Leukemia K-562, 10 μM): 65%
inhibition at 10 µM ([7]; KM12, Colon cancer KM12, 10 μM): 46.3%
inhibition at 10 µM ([7]; LOX IMVI, Melanoma LOX IMVI, 10 μM): 61.8%
inhibition at 10 µM ([7]; Leukemia SR, 10 μM): 95.9%
inhibition at 10 µM ([7]; MCF7, Breast cancer MCF7, 10 μM): 76.8%
inhibition at 10 µM ([7]; MDA-MB-231, Breast cancer MDA-MB-231/ATCC, 10 μM): 68.5%
inhibition at 10 µM ([7]; MDA-MB-435, Melanoma MDA-MB-435, 10 μM): 95.6%
inhibition at 10 µM ([7]; MDA-MB-468, Breast cancer MDA-MB-468, 10 μM): 111%
inhibition at 10 µM ([7]; MOLT-4, Leukemia MOLT-4, 10 μM): 81.5%
inhibition at 10 µM ([7]; Melanoma M14, 10 μM): 26.9%
inhibition at 10 µM ([7]; Melanoma MALM-3M, 10 μM): 78.3%
inhibition at 10 µM ([7]; NCI-H23, Non-small cell lung cancer NCI-H23, 10 μM): 30.1%
inhibition at 10 µM ([7]; NCI-H226, Non-small cell lung cancer NCI-H226, 10 μM): 37.7%
inhibition at 10 µM ([7]; NCI-H322M, Non-small cell lung cancer NCI-H322M, 10 μM): 22.3%
inhibition at 10 µM ([7]; NCI-H460, Non-small cell lung cancer NCI-H460, 10 μM): 22.1%
inhibition at 10 µM ([7]; NCI-H522, Non-small cell lung cancer NCI-H522, 10 μM): 94.9%
inhibition at 10 µM ([7]; NCI/ADR-RES, Ovarian cancer NCI/ADR-RES, 10 μM): 9.87%
inhibition at 10 µM ([7]; OVCAR-3, Ovarian cancer OVCAR-3, 10 μM): 43.8%
inhibition at 10 µM ([7]; OVCAR-4, Ovarian cancer OVCAR-4, 10 μM): 32.3%
inhibition at 10 µM ([7]; OVCAR-5, Ovarian cancer OVCAR-5, 10 μM): 18.6%
inhibition at 10 µM ([7]; OVCAR-8, Ovarian cancer OVCAR-8, 10 μM): 19.5%
inhibition at 10 µM ([7]; Prostate cancer PC-3, 10 μM): 41.6%
inhibition at 10 µM ([7]; RPMI-8226, Leukemia RPMI-8226, 10 μM): 25.7%
inhibition at 10 µM ([7]; RXF 393, Renal cancer RXF 393, 10 μM): 31.4%
inhibition at 10 µM ([7]; SF-268, CNS Cancer SF-268, 10 μM): 42.7%
inhibition at 10 µM ([7]; SF-295, CNS Cancer SF-295, 10 μM): 8.09%
inhibition at 10 µM ([7]; SF-539, CNS Cancer SF-539, 10 μM): 58.4%
inhibition at 10 µM ([7]; SK-MEL-2, Melanoma SK-MEL-2, 10 μM): 80%
inhibition at 10 µM ([7]; SK-MEL-5, Melanoma SK-MEL-5, 10 μM): 45%
inhibition at 10 µM ([7]; SK-MEL-28, Melanoma SK-MEL-28, 10 μM): 65.3%
inhibition at 10 µM ([7]; SK-OV-3, Ovarian cancer SK-OV-3, 10 μM): 30.8%
inhibition at 10 µM ([7]; SN12C, Renal cancer SN12C, 10 μM): 38.8%
inhibition at 10 µM ([7]; SNB-19, CNS Cancer SNB-19, 10 μM): 54%
inhibition at 10 µM ([7]; SNB-75, CNS Cancer SNB-75, 10 μM): 78%
inhibition at 10 µM ([7]; SW-620, Colon cancer SW-620, 10 μM): 24.3%
inhibition at 10 µM ([7]; T47D, Breast cancer T-47D, 10 μM): 82.5%
inhibition at 10 µM ([7]; TK-10, Renal cancer TK-10, 10 μM): < 5%
inhibition at 10 µM ([7]; U-251, CNS Cancer U251, 10 μM): 62.1%
inhibition at 10 µM ([7]; UACC-62, Melanoma UACC-62, 10 μM): 88.6%
inhibition at 10 µM ([7]; UACC-257, Melanoma UACC-257, 10 μM): 33.7%
inhibition at 10 µM ([7]; UO-31, Renal cancer UO-31, 10 μM): 45.2%
